The source made the active and inactive calls. How the calls were made is not given here.
Test system: CCRIS mutagenicity, Ames/micronucleus/aberration tests
Assay: CCRIS mutagenicity studies
Conditions: Method: PREINCUBATION

Measured: mutagenic call

O=C(O)c1ccc2c(c1)C(=O)OC2=O
inactive: Test System: AMES SALMONELLA TYPHIMURIUM, Strain/Indicator: TA98, Metabolic Activation: HAMSTER, LIVER, S-9, AROCLOR 1254 (10%) inactive; negative | Test System: AMES SALMONELLA TYPHIMURIUM, Strain/Indicator: TA98, Metabolic Activation: NONE inactive; negative | Test System: AMES SALMONELLA TYPHIMURIUM, Strain/Indicator: TA98, Metabolic Activation: RAT LIVER S-9, PHENOBARBITAL AND BETA-NAPHTHOFLAVONE inactive; negative | Test System: AMES SALMONELLA TYPHIMURIUM, Strain/Indicator: TA98, Metabolic Activation: RAT, LIVER, S-9, AROCLOR 1254 (10%) inactive; negative | Test System: AMES SALMONELLA TYPHIMURIUM, Strain/Indicator: TA100, Metabolic Activation: HAMSTER, LIVER, S-9, AROCLOR 1254 (10%) inactive; negative | Test System: AMES SALMONELLA TYPHIMURIUM, Strain/Indicator: TA100, Metabolic Activation: NONE inactive; negative | Test System: AMES SALMONELLA TYPHIMURIUM, Strain/Indicator: TA100, Metabolic Activation: RAT LIVER S-9, PHENOBARBITAL AND BETA-NAPHTHOFLAVONE inactive; negative | Test System: AMES SALMONELLA TYPHIMURIUM, Strain/Indicator: TA100, Metabolic Activation: RAT, LIVER, S-9, AROCLOR 1254 (10%) inactive; negative | Test System: AMES SALMONELLA TYPHIMURIUM, Strain/Indicator: TA102, Metabolic Activation: NONE inactive; negative | Test System: AMES SALMONELLA TYPHIMURIUM, Strain/Indicator: TA102, Metabolic Activation: RAT LIVER S-9, PHENOBARBITAL AND BETA-NAPHTHOFLAVONE inactive; negative | Test System: AMES SALMONELLA TYPHIMURIUM, Strain/Indicator: TA104, Metabolic Activation: NONE inactive; negative | Test System: AMES SALMONELLA TYPHIMURIUM, Strain/Indicator: TA104, Metabolic Activation: RAT LIVER S-9, PHENOBARBITAL AND BETA-NAPHTHOFLAVONE inactive; negative | Test System: AMES SALMONELLA TYPHIMURIUM, Strain/Indicator: TA1535, Metabolic Activation: HAMSTER, LIVER, S-9, AROCLOR 1254 (10%) inactive; negative | Test System: AMES SALMONELLA TYPHIMURIUM, Strain/Indicator: TA1535, Metabolic Activation: NONE inactive; negative | Test System: AMES SALMONELLA TYPHIMURIUM, Strain/Indicator: TA1535, Metabolic Activation: RAT LIVER S-9, PHENOBARBITAL AND BETA-NAPHTHOFLAVONE inactive; negative | Test System: AMES SALMONELLA TYPHIMURIUM, Strain/Indicator: TA1535, Metabolic Activation: RAT, LIVER, S-9, AROCLOR 1254 (10%) inactive; negative | Test System: AMES SALMONELLA TYPHIMURIUM, Strain/Indicator: TA1537, Metabolic Activation: HAMSTER, LIVER, S-9, AROCLOR 1254 (10%) inactive; negative | Test System: AMES SALMONELLA TYPHIMURIUM, Strain/Indicator: TA1537, Metabolic Activation: NONE inactive; negative | Test System: AMES SALMONELLA TYPHIMURIUM, Strain/Indicator: TA1537, Metabolic Activation: RAT LIVER S-9, PHENOBARBITAL AND BETA-NAPHTHOFLAVONE inactive; negative | Test System: AMES SALMONELLA TYPHIMURIUM, Strain/Indicator: TA1537, Metabolic Activation: RAT, LIVER, S-9, AROCLOR 1254 (10%) inactive; negative | Test System: E.COLI, Strain/Indicator: WP2UVRA/PKM101, Metabolic Activation: NONE inactive; negative | Test System: E.COLI, Strain/Indicator: WP2UVRA/PKM101, Metabolic Activation: RAT LIVER S-9, PHENOBARBITAL AND BETA-NAPHTHOFLAVONE inactive; negative | Test System: E.COLI, Strain/Indicator: WP2UVRA, Metabolic Activation: NONE inactive; negative | Test System: E.COLI, Strain/Indicator: WP2UVRA, Metabolic Activation: RAT LIVER S-9, PHENOBARBITAL AND BETA-NAPHTHOFLAVONE inactive; negative

Reference: PubChem BioAssay AID1259407 (Chemical Carcinogenesis Research Information System (CCRIS), 2018)
